Measurements: patent publication US10426758B2, “Sibiriline derivatives for use for preventing and/or treating disorders associated with cellular necroptosis” (Institut National de la Sante et de la Recherche Medicale …, priority 2015, dated 2019)

Key:
L929 cells = test: Anti-necroptotic effect, L929 cells, TNF + zVAD, FACS of propidium iodide-stained nuclei; type: cell-based
Method: (§1) L929 cells, L929AsFas cells, Jurkat FADD-deficient cells (Jurkat FADD^−/−), U937 cells are pretreated for 1 h with increased concentrations of Sib (0, 5, 10, 20 μM) and then treated respectively with TNF-α (10 ng/ml)+zVAD (20 μM), FasL (200 ng/ml)+zVAD (20 μM), TNF-α (10 ng/ml), TRAIL (200 ng/ml)+zVAD (30 μM) or TRAIL (200 ng/ml)+zVAD (30 μM)+CHX (1 μg/ml). % of cell death is determined after 24 h and calculated by a FACS analysis of Propidium Iodide-stained nuclei. In each case, the EC50 is determined as well as the % of rescue from cell death.

L929AsFas cells = test: Anti-necroptotic effect, L929AsFas cells, FasL + zVAD, FACS of propidium iodide-stained nuclei; type: cell-based
Method: as §1

U937 cells = test: Anti-necroptotic effect, U937 cells, TRAIL + zVAD + CHX, FACS of propidium iodide-stained nuclei; type: cell-based
Method: as §1

[1] = tested on: Jurkat Fadd deficient cells; test: Delayed treatment of Sib on TNF-induced necroptotic cell-death; type: cell-based, human; settings: 10 μM added 1 h, 2 h, 3 h or 4 h after TNF-α (10 ng/ml); cell death after 24 h
Method: Jurkat Fadd deficient cells are treated with TNF-α (10 ng/ml) then treated with Sib (10 μM) at 1 h, 2 h, 3 h or 4 h after adding TNF-α. % of cell death is determined after 24 h and calculated by a FACS analysis of Propidium Iodide-stained nuclei. Quantitative analysis of three independent experiments with means±SD.

[2] = biological target: T1, Human RIPK1 full length GST-tagged (Homo sapiens, UniProt Q13546); test: RIPK1 autophosphorylation assay; type: biochemical; settings: radioactively labeled RIPK1, [γ-32P] ATP, 30 minutes at 30° C.
T1 construct: Human RIPK1 full length GST-tagged; made in house; host or cells: Sf9 insect cells (Bac-to-Bac baculovirus system)
T1 sequence (Q13546 1-671): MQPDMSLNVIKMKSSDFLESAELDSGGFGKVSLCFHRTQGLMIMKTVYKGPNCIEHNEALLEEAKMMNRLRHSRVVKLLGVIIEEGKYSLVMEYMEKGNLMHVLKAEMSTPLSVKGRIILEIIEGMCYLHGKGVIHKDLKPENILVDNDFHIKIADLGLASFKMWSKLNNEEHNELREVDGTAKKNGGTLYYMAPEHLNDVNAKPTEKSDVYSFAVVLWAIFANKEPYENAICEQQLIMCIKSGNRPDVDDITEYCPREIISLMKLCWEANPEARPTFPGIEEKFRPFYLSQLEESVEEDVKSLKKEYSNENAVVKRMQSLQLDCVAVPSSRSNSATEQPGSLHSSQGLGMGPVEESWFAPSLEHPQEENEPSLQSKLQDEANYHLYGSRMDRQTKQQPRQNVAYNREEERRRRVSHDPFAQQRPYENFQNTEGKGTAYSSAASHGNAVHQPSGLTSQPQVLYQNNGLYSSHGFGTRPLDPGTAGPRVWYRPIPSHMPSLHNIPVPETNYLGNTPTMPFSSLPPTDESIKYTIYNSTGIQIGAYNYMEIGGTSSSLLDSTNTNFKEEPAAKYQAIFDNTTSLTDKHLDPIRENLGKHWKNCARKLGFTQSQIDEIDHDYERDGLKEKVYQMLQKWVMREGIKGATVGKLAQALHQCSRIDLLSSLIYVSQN
Method: Human RIPK1 full length GST-tagged was baculovirally expressed in Sf9 cells according to manufacturer's instructions (Bac-to-Bac expression system, Invitrogen) and purified using gluthation-sepharose beads (GE Healthcare). The elution was made in 50 mM Tris-HCl, pH 8.0 buffer supplemented with 30 mM reduced gluthatione (Sigma). The protocol used to detect the enzymatic activity is adapted from Miao and Degterev (Methods Mol. Biol. 2009, 559, 79-93). Kinase reaction was initiated mixing 5 μl of eluted RIPK1, 5 μl of 3× kinase reaction buffer (5 mM MOPS pH 7.2, 2.5 mM β-glycerophosphate, 4 mM MgCl2, 2.5 mM MnCl2, 1 mM EGTA, 0.4 mM EDTA, 50 μg/ml BSA, 0.05 mM DTT), 2 μl H2O and 3 μl of the tested molecule. The mixture was kept on ice for 10 minutes. During the incubation, the ATP solution was prepared by mixing 5 μl of 3× kinase reaction buffer, 4 μl H2O, 6 μl cold ATP at 150 μM and 2 μCi of [γ-^32P] ATP. Add the ATP solution and the tested inhibitor to the kinase and incubate for 30 minutes at 30° C. To stop the enzymatic reaction, 5 μl of loading buffer were added and solution was heated for 3 minutes at 95° C. 25 μl of each reaction were loaded per well in pre-cast NuPage 12% Bis-Tris gel (Life Technology). Autophosphorylated RIPK1 band was visualized on radiographic film after 6 h exposition at −80° C.

[3] = tested on: cytochrome P450 CYP1A enzymes in HepG2 cells; test: Ethoxyresorufin O-deethylase (EROD) activity in HepG2 cells; type: in vitro ADME, human; settings: 10 μM, 24 hours
Method: EROD activity corresponds to the O-deethylation of ethoxyresorufin and is mainly supported by cytochrome P450 CYP1A enzymes in HepG2 cells. Induction of CYP1A is mediated through the binding of xenobiotics to a cytosolic aryl hydrocarbon receptor AhR.
Human liver cancer cell lines HepG2 were treated with 10 μM of Sib, Nec-1 or Nec-1s for 24 hours. After treatment, HepG2 cells were incubated in PBS containing 5 mM ethoxyresorufin and kinetic reading was performed at 37° C. with spectrofluorometer (SpectraMax Gemini SX) over a 15 min period.

[4] = tested on: murine model of acute hepatitis (concanavalin A-induced hepatitis); test: Concanavalin A-induced acute hepatitis in mice; type: in vivo, C57Bl/6 WT mice
Method: We use a murine model of acute hepatitis (concanavalin A-induced hepatitis) that depends on necroptosis induction (Jouan-Lanhouet et al. Semin. Cell. Dev. Biol. 2014, 35, 2-13). Sib is diluted in 50% PBS/50% DMSO.
C57Bl/6 WT mice were pre-treated or not with 3, 6 or 9 mg/kg Sib or 6.25 mg/kg Nec-1s injected by intraperitoneal route 1 hour before treatment or not with 12 mg/kg Con A for 10 h (intravenous route) (50% PBS/50% DMSO, n=5; 50% PBS/50% DMSO+Con A, n=5; 3 mg/kg Sib+Con A, n=5; 6 mg/kg Sib+Con A, n=5; 9 mg/kg Sib+Con A, n=5; 6.25 mg/kg Nec-1s+Con A, n=5).

inhibition of RIPK1 autophosphorylation [2]: dose-dependent inhibition
inhibition of RIPK1 autophosphorylation ([2]; listed as Sib): inhibit the RIPK1 autophosphorylation
induction of EROD activity [3]: do not induce EROD activity
SMILES: Oc1ccc(-c2cc3cccnc3[nH]2)cc1 [compound 2, 4-(1H-pyrrolo[2,3-b]pyridin-2-yl)phenol]
EC50 (L929 cells; Mus musculus, 1 h pretreatment, cell death after 24 h): 3000 nM
% Rescue (L929 cells; rescue from cell death, 24 h): 80%
EC50 (L929AsFas cells; 1 h pretreatment, cell death after 24 h): 2400 nM
% Rescue (L929AsFas cells; rescue from cell death, 24 h): 80%
EC50 (U937 cells; Homo sapiens, U-937, 1 h pretreatment, cell death after 24 h): 20000 nM
% Rescue (U937 cells; rescue from cell death, 24 h): 50%
effect on necroptotic cell-death with delayed treatment [1]: inhibits the necroptotic cell-death
AST and ALT levels and protection from Con A-induced hepatitis ([4]; Sib 9 mg/kg intraperitoneal 1 hour before 12 mg/kg Con A for 10 h): This protection is not observed
AST and ALT levels and protection from Con A-induced hepatitis ([4]; Sib 3 or 6 mg/kg intraperitoneal 1 hour before 12 mg/kg Con A for 10 h): has a tendency to decrease AST and ALT levels and to protect mice from Con A-induced hepatitis
serum aminotransaminases (ALT, AST) levels induced by ConA (figure legend) ([4]; dose of 3 mg/kg): decreases these serum transaminase levels
